# Laboratory results published in patent EP3818828A1 (priority 2019, dated 2021).
# Tests used:
# [1] = system: Botryosphaeria berengeriana; assay: Ex vivo mycelial growth inhibition, growth rate method; type: cell-based; details: 1 mg/mL
# Text: (§1) 3-(3',4'-methylenedioxy phenyl)-N-n-propyl acrylamide (at a purity of 99%), 3-(3',4'-methylenedioxy phenyl)-piperidine acrylate (at a purity of 99%), the control agents, 96.5% of chlorothalonil technical (non-systemic broad-spectrum fungicide), 97.2% of carbendazim technical (systemic broad-spectrum fungicide), 97.0% of procymidone technical (systemic fungicide), 96.0% of dimethomorphtechnical ((E,Z)-4-[3-(4-chlorphenyl)3-(3,4-dimethoxy phenyl)acryloyl]morpholine, systemic fungicide), 97.0% of azoxystrobin technical (systemic broad-spectrum fungicide).
# (§2) The inhibition of samples for testing on the mycelial growth of plant pathogenic fungi for testing is determined with a growth rate method. 3-(3',4'-methylenedioxy phenyl)-N-n-propyl acrylamide, 3-(3',4'-methylenedioxy phenyl)-piperidine acrylate and five control agents are dissolved with dimethyl sulfoxide (DMSO), then formulated at 5-7 concentrations of different gradients for test following the trial test results, with the same concentration of DMSO as the control solvent, each treatment in triplicate. Fungal cakes with a diameter of 4 mm are taken from the edge of the colony, inoculated into the center of a PDA plate containing different agents of different concentrations and the DMSO control, with one piece of fungal cake inoculated in each plate (with a diameter of […]), and incubated in a constant temperature incubator at a temperature of 22±1.5°C. 7 days later (10-20 days may be needed for some pathogenic fungi), the diameter of the colony is measured with a cross over method according to the mycelial growth profile of the control pathogenic fungi, then the inhibition rate of mycelial growth is calculated.
# (§3) The computational formula is as below: the inhibition rate of mycelial growth (%) = [(the diameter of the control colony - the diameter of the treated colony)/the diameter of the control colony] × 100.
# (§4) The inhibition results of each agent at a concentration of 1 mg/mL on the mycelial growth of plant pathogenic fungi are shown in Tables 1 and 2.
# [2] = system: Botryosphaeriana berengeriana; assay: as above; type: cell-based; details: 1 mg/mL
# Text: as §1, §2, §3, §4
# [3] = system: Botrytis cinerea; assay: as above; type: cell-based; details: 1 mg/mL
# Text: as §1, §2, §3, §4
# [4] = system: C. gossypii; assay: as above; type: cell-based; details: 1 mg/mL; for Average Diameter of the Colony: C. gossypii; for inhibition at 1000 µg/mL: Colletotrichum gossypii, C. cossypii, read-out: Inhibition Rate
# Text: as §1, §2, §3, §4
# [5] = system: Colletotrichum capsici; assay: as above; type: cell-based; details: 1 mg/mL; for inhibition at 1000 µg/mL: Colletotrichum truncatum
# Text: as §1, §2, §3, §4
# [6] = system: Coniella diplodiella; assay: as above; type: cell-based; details: 1 mg/mL
# Text: as §1, §2, §3, §4
# [7] = system: Exserohilum turcicum; assay: as above; type: cell-based; details: 1 mg/mL
# Text: as §1, §2, §3, §4
# [8] = system: F. oxysporum f. sp. lini; assay: as above; type: cell-based; details: 1 mg/mL; for inhibition at 1000 µg/mL: Fusarium oxysporum
# Text: as §1, §2, §3, §4
# [9] = system: F. oxysporum f. sp. vasinfectum; assay: as above; type: cell-based; details: 1 mg/mL; for inhibition at 1000 µg/mL: Fusarium oxysporum
# Text: as §1, §2, §3, §4
# [10] = system: F. verticillioide; assay: as above; type: cell-based; details: 1 mg/mL
# Text: as §1, §2, §3, §4
# [11] = system: Gaeumannomyces graminis var. graminis and G. graminis var. tritici; assay: as above; type: cell-based; details: 1 mg/mL
# Text: as §1, §2, §3, §4
# [12] = system: Mycosphaerlla melonis; assay: as above; type: cell-based; details: 1 mg/mL
# Text: as §1, §2, §3, §4
# [13] = system: Phytophthora capsici; assay: as above; type: cell-based; details: for Average Diameter of the Colony / inhibition at 1000 µg/mL: Phytophthora capsici, 1 mg/mL; for antifungal activity against Phytophthora capsici: supplementary determination, compared with hymexazol
# Text: as §1, §2, §3, §4
# [14] = system: Pythium aphanidermatum; assay: as above; type: cell-based; details: 1 mg/mL
# Text: as §1, §2, §3, §4
# [15] = system: Rhizoctonia solani; assay: as above; type: cell-based; details: for Average Diameter of the Colony / inhibition at 1000 µg/mL: Rhizoctonia solani, 1 mg/mL
# Text: as §1, §2, §3, §4
# [16] = system: Sclerotinia sclerotiorum; assay: as above; type: cell-based; details: 1 mg/mL
# Text: as §1, §2, §3, §4
# [17] = system: Thanatephorus cucumeris; assay: as above; type: cell-based; details: 1 mg/mL
# Text: as §1, §2, §3, §4
# [18] = system: Valsa mali; assay: as above; type: cell-based; details: 1 mg/mL; for inhibition at 1000 µg/mL: Cytospora mali
# Text: as §1, §2, §3, §4
# [19] = system: Fusarium graminearum; assay: microbe, parasite or virus in culture; type: cell-based; details: for EC50: median inhibition concentration
# [20] = system: Magnaporthe grisea; assay: microbe, parasite or virus in culture; type: cell-based; details: for EC50: median inhibition concentration
# [21] = system: cucumber powdery mildew; assay: In-vivo greenhouse determination of systemic action (root-irrigation) on cucumber powdery mildew
# Method: 5.61 g of 3-(3',4'-methylenedioxy phenyl)-piperidine acrylate was weighed and dissolved in 25 g of absolute ethyl alcohol, then 6 g of emulsifier 0203B was added, and mixed uniformly with stirring to get 14% of 3-(3',4'-methylenedioxy phenyl)-piperidine acrylate EC.
# Cucumber (Variety: Tianjin Mici) was sown in big pots (with a diameter of 30 cm) in a greenhouse, remaining 3 plants for each pot after emergence. The first root-irrigation was started at the early onset of cucumber powdery mildew (first appearance of spots on the true leaves). 14% of 3-(3',4'-methylenedioxy phenyl)-piperidine acrylate EC was diluted at three concentrations of 1.00, 0.667 and 0.50 mg/mL (active ingredients), 500 mL liquor for each pot. The root-irrigations were conducted every 7 days consecutively for 3 times. 10 days after the third root-irrigation, the number of sick leaves at each grade of cucumber powdery mildew was investigated for the whole plant following the grading standard of 9 grades, to calculate the disease index and the control effect.
# [22] = EC50 of chlorothalonil / EC50 of agent
# [23] = EC50 of procymidone / EC50 of agent
smiles,measurement,setting,value
"CCCNC(=O)/C=C/c1ccc2c(c1)OCO2 [3-(3',4'-methylenedioxyphenyl)-N-n-propyl acrylamide]",Average Diameter of the Colony,[1],3.60 cm
same,inhibition at 1000 µg/mL,[1],47.1%
same,Average Diameter of the Colony,[2],4.63 cm
same,inhibition at 1000 µg/mL,[2],18.8%
same,Average Diameter of the Colony,[3],1.35 cm
same,inhibition at 1000 µg/mL,[3],82%
same,Average Diameter of the Colony,[4],1.74 cm
same,inhibition at 1000 µg/mL,[4],67.8%
same,Average Diameter of the Colony,[5],1.66 cm
same,inhibition at 1000 µg/mL,[5],75.5%
same,Average Diameter of the Colony,[6],0.00 cm
same,inhibition at 1000 µg/mL,[6],100%
same,Average Diameter of the Colony,[7],1.44 cm
same,inhibition at 1000 µg/mL,[7],76.8%
same,Average Diameter of the Colony,[8],6.30 cm
same,inhibition at 1000 µg/mL,[8],30%
same,Average Diameter of the Colony,[9],3.03 cm
same,inhibition at 1000 µg/mL,[9],58.1%
same,Average Diameter of the Colony,[10],2.94 cm
same,inhibition at 1000 µg/mL,[10],13%
same,Average Diameter of the Colony,[11],3.05 cm
same,inhibition at 1000 µg/mL,[11],57.3%
same,Average Diameter of the Colony,[12],0.58 cm
same,inhibition at 1000 µg/mL,[12],93.3%
same,Average Diameter of the Colony,[13],0.65 cm
same,inhibition at 1000 µg/mL,[13],87.7%
same,antifungal activity against Phytophthora capsici,[13],"superior to that of the control agent, hymexazol"
same,Average Diameter of the Colony,[14],0.21 cm
same,inhibition at 1000 µg/mL,[14],96.9%
same,Average Diameter of the Colony,[15],0.25 cm
same,inhibition at 1000 µg/mL,[15],96.5%
same,Average Diameter of the Colony,[16],3.28 cm
same,inhibition at 1000 µg/mL,[16],61.9%
same,Average Diameter of the Colony,[17],3.51 cm
same,inhibition at 1000 µg/mL,[17],59.2%
same,Average Diameter of the Colony,[18],0.65 cm
same,inhibition at 1000 µg/mL,[18],91.8%
"O=C(/C=C/c1ccc2c(c1)OCO2)N1CCCCC1 [3-(3',4'-methylenedioxyphenyl)-piperidine acrylate]",Average Diameter of the Colony,[1],0.22 cm
same,inhibition at 1000 µg/mL,[1],96.8%
same,Average Diameter of the Colony,[2],0.14 cm
same,inhibition at 1000 µg/mL,[2],97.5%
same,Average Diameter of the Colony,[3],0.25 cm
same,inhibition at 1000 µg/mL,[3],96.7%
same,Average Diameter of the Colony,[4],0.10 cm
same,inhibition at 1000 µg/mL,[4],98.2%
same,Average Diameter of the Colony,[5],0.28 cm
same,inhibition at 1000 µg/mL,[5],95.9%
same,Average Diameter of the Colony,[6],0.00 cm
same,inhibition at 1000 µg/mL,[6],100%
same,Average Diameter of the Colony,[7],0.34 cm
same,inhibition at 1000 µg/mL,[7],94.5%
same,Average Diameter of the Colony,[8],2.73 cm
same,inhibition at 1000 µg/mL,[8],69.7%
same,Average Diameter of the Colony,[9],0.40 cm
same,inhibition at 1000 µg/mL,[9],94.5%
same,Average Diameter of the Colony,[10],0.49 cm
same,inhibition at 1000 µg/mL,[10],85.5%
same,Average Diameter of the Colony,[11],0.39 cm
same,inhibition at 1000 µg/mL,[11],94.5%
same,Average Diameter of the Colony,[12],0.00 cm
same,inhibition at 1000 µg/mL,[12],100%
same,Average Diameter of the Colony,[13],0.00 cm
same,inhibition at 1000 µg/mL,[13],100%
same,antifungal activity against Phytophthora capsici,[13],"superior to that of the control agent, hymexazol"
same,Average Diameter of the Colony,[14],0.06 cm
same,inhibition at 1000 µg/mL,[14],99.1%
same,Average Diameter of the Colony,[15],0.00 cm
same,inhibition at 1000 µg/mL,[15],100%
same,antifungal activity against Rhizoctonia solani,"[15]; supplementary determination, compared with chlorothalonil, dimethomorph and azoxystrobin","superior to that of chlorothalonil, dimethomorph and azoxystrobin"
same,Average Diameter of the Colony,[16],0.00 cm
same,inhibition at 1000 µg/mL,[16],100%
same,Average Diameter of the Colony,[17],0.00 cm
same,inhibition at 1000 µg/mL,[17],100%
same,Average Diameter of the Colony,[18],0.00 cm
same,inhibition at 1000 µg/mL,[18],100%
same,Relative Toxicity (Compared to Chlorothalonil),[19]; [22],5.89
same,Relative Toxicity (Compared to Procymidone),[19]; [23],1.80
same,EC50,[19],80 µg/mL
same,EC50,[19]; listed as 66#,79.6 µg/mL
same,Relative Toxicity (Compared to Chlorothalonil),[20]; [22],2.45
same,Relative Toxicity (Compared to Procymidone),[20]; [23],1.73
same,EC50,[20]; Pyricularia oryzae,180 µg/mL
same,EC50,[20]; listed as 66#,177.6 µg/mL
same,systemic activity,"[21]; cucumber powdery mildew, uptake by roots and delivery upwards",no systemic activity
same,effects of root-irrigations on cucumber powdery mildew,"[21]; root-irrigations at 1.00, 0.667 and 0.50 mg/mL at the early onset",no effects
